How the values were obtained:
[1] = Stability of purified CBDA in solution; assay type: physicochemical
From the text: This undesirable decarboxylation of the purified material might be minimised by manipulation of CBDA at sub-ambient temperatures.

[2] = target: CB2 (Peripheral receptors) (Homo sapiens, UniProt P34972); conditions: cited from earlier work
Chain of CB2 (Peripheral receptors) (P34972 whole entry, species assumed): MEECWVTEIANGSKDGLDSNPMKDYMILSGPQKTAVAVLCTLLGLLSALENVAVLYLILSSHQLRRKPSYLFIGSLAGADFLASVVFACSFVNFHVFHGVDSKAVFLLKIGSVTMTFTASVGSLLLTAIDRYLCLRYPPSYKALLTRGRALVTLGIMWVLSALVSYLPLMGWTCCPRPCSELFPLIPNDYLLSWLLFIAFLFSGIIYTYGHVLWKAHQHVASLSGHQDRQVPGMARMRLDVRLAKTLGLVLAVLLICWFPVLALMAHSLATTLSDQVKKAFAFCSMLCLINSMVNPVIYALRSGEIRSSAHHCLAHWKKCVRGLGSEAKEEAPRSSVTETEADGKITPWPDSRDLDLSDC

SMILES	decarboxylation in solution (CBDA→CBD+CO2) [1]	binding to CB2 receptors [2]
C=C(C)[C@@H]1CCC(C)=C[C@H]1c1c(O)cc(CCCCC)c(C(=O)O)c1O [CBDA]	slowly decarboxylates in solution	–
CCCCCc1cc(O)c2c(c1)OC(C)(C)[C@@H]1CCC(C)=C[C@@H]21 [THC, delta^9-tetrahydrocannabinol]	–	bound with high avidity

— US8034843B2, “Compositions comprising cannabinoids for treatment of nausea, vomiting, emesis, motion sickness or like conditions” (priority 2002, dated 2011)
